Like-named read-outs stand apart in the source and are kept apart here.
Tests used:
Assay type in all cases: in vivo
[1] = test system: redroot pigweed (Amaranthus retroflexus, AMARE); assay: Pre-emerge test, greenhouse herbicide activity screening; conditions: pre-emerge; for Pre-emerge Herbicidal Activity AMARE (phytotoxicity rating, scale 0-100): rated 14 days after application, 0 = no damage, 100 = complete death; for phytotoxicity rating AMARE: 14 days after application, rating scale 0-100
Method in brief: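 Visual ratings on a 0-100 scale (0 no damage, 100 all plants dead) were taken at 14 days after treatment. Rates of 15-1000 g ai/ha in acetone, 187 l/ha, were sprayed onto soil one day after planting (pre-emerge) or onto 2-3 leaf plants with 0.25% v/v surfactant (post-emerge).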

[2] = test system: sicklepod (Cassia obtusifolia, CASOB); assay: as above; conditions: pre-emerge; for Pre-emerge Herbicidal Activity CASOB (phytotoxicity rating, scale 0-100): rated 14 days after application, 0 = no damage, 100 = complete death; for phytotoxicity rating CASOB: 14 days after application, rating scale 0-100
Method in brief: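 Fourteen days after spraying, crop and weed injury was graded visually from 0, no effect, to 100, every plant dead. Test substances were dissolved in acetone and applied at 15–1000 g ai/ha with a flat-fan nozzle. Application was either pre-emergence, one day after sowing, or post-emergence at the 2–3 leaf stage.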

[3] = test system: barnyardgrass (Echinochloa crus-galli, ECHCG); assay: Post-emerge test, greenhouse herbicide activity screening; conditions: Echinochloa crus-galli, post-emergence, 336 h, read-out: Post-emerge Herbicidal Activity ECHCG; for pest or weed control at 63 g/ha: 63 g ai/ha; for pest or weed control at 250 g/ha: 250 g ai/ha
Method in brief: (§1)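 Herbicidal damage is scored 0 (none) to 100 (complete plant death) two weeks after a simulated field spray. Rates span 15–1000 g ai/ha, delivered in acetone at 187 l/ha. For post-emergence treatments, plants have 2–3 leaves and the spray carries 0.25% v/v non-ionic surfactant.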

[4] = test system: green foxtail (Setaria viridis, SETVI); assay: as above; conditions: Setaria viridis, post-emergence, 336 h, read-out: Post-emerge Herbicidal Activity SETVI; for pest or weed control at 63 g/ha: 63 g ai/ha; for pest or weed control at 250 g/ha: 250 g ai/ha
Method in brief: as §1

[5] = test system: ivyleaf morningglory (Ipomoea hederacea, IPOHE); assay: as above; conditions: Ipomoea, post-emergence, 336 h, read-out: Post-emerge Herbicidal Activity IPOHE; for pest or weed control at 63 g/ha: 63 g ai/ha; for pest or weed control at 250 g/ha: 250 g ai/ha
Method in brief: as §1

[6] = test system: johnsongrass (Sorghum halepense, SORHA); assay: as above; conditions: Sorghum halepense, post-emergence, 336 h, read-out: Post-emerge Herbicidal Activity SORHA; for pest or weed control at 63 g/ha: 63 g ai/ha; for pest or weed control at 250 g/ha: 250 g ai/ha
Method in brief: as §1

[7] = test system: large crabgrass (Digitaria sanguinalis, DIGSA); assay: as above; conditions: Digitaria sanguinalis, post-emergence, 336 h, read-out: Post-emerge Herbicidal Activity DIGSA; for pest or weed control at 63 g/ha: 63 g ai/ha; for pest or weed control at 250 g/ha: 250 g ai/ha
Method in brief: as §1

[8] = test system: redroot pigweed (Amaranthus retroflexus, AMARE); assay: as above; conditions: Amaranthus retroflexus, post-emergence, 336 h, read-out: Post-emerge Herbicidal Activity AMARE; for pest or weed control at 63 g/ha: 63 g ai/ha; for pest or weed control at 250 g/ha: 250 g ai/ha
Method in brief: as §1

[9] = test system: sicklepod (Cassia obtusifolia, CASOB); assay: as above; conditions: Senna obtusifolia, post-emergence, 336 h, phytotoxicity rating 0-100 (0 no damage, 100 complete death), 14 days after application, read-out: Post-emerge Herbicidal Activity CASOB; for pest or weed control at 63 g/ha: 63 g ai/ha; for pest or weed control at 250 g/ha: 250 g ai/ha
Method in brief: as §1

[10] = test system: velvetleaf (Abutilon theophrasti, ABUTH); assay: as above; conditions: Abutilon theophrasti, post-emergence, 336 h, read-out: Post-emerge Herbicidal Activity ABUTH; for pest or weed control at 63 g/ha: 63 g ai/ha; for pest or weed control at 250 g/ha: 250 g ai/ha
Method in brief: as §1

[11] = test system: lambsquarters (Chenopodium album, CHEAL); assay: as above; conditions: Chenopodium album, post-emergence, 336 h, read-out: Post-emerge Herbicidal Activity CHEAL; for pest or weed control at 63 g/ha: 63 g ai/ha; for pest or weed control at 250 g/ha: 250 g ai/ha
Method in brief: as §1

[12] = phytotoxicity rating 0-100 (0 no damage, 100 complete death), 14 days after application
[13] = post-emerge, phytotoxicity rating 0-100 at 14 days after application

Cn1c(C(F)(F)F)cc(=O)n(-c2c(F)cc(Cl)c(OC(F)F)c2N)c1=O [Compound 1-38, 3-(2-amino-4-chloro-3-difluoromethoxy-6-fluorophenyl)-1-methyl-6-trifluoromethyl-2,4(1H, 3H)-pyrimidinedione]
Pre-emerge Herbicidal Activity AMARE (phytotoxicity rating, scale 0-100) ([1]; 63 g ai/ha): 100
Pre-emerge Herbicidal Activity AMARE (phytotoxicity rating, scale 0-100) ([1]; 250 g ai/ha): 100
Pre-emerge Herbicidal Activity CASOB (phytotoxicity rating, scale 0-100) ([2]; 63 g ai/ha): 100
Pre-emerge Herbicidal Activity CASOB (phytotoxicity rating, scale 0-100) ([2]; 250 g ai/ha): 100
pest or weed control at 63 g/ha [3, 12]: 0%
pest or weed control at 250 g/ha [3, 12]: 80%
pest or weed control at 63 g/ha [4, 12]: 10%
pest or weed control at 250 g/ha [4, 12]: 80%
pest or weed control at 63 g/ha [5, 12]: 80%
pest or weed control at 250 g/ha [5, 12]: 100%
pest or weed control at 63 g/ha [6, 12]: 0%
pest or weed control at 250 g/ha [6, 12]: 80%
pest or weed control at 63 g/ha [7, 12]: 10%
pest or weed control at 250 g/ha [7, 12]: 80%
pest or weed control at 63 g/ha [8, 12]: 80%
pest or weed control at 250 g/ha [8, 12]: 100%
pest or weed control at 63 g/ha [9]: 50%
pest or weed control at 250 g/ha [9]: 90%
pest or weed control at 63 g/ha [10, 12]: 100%
pest or weed control at 250 g/ha [10, 12]: 100%

COc1c(Cl)cc(F)c(-c2nn(C)c(C(F)(F)F)c2Cl)c1N [Compound 7-2, 4-chloro-3-(2-amino-4-chloro-6-fluoro3-metoxyphenyl)-1-methyl-5-trifluoromethyl-1H-pyrazole]
pest or weed control at 63 g/ha ([1]; Amaranthus retroflexus, pre-emergence, 336 h, rate 63 g ai/ha, phytotoxicity rating 0-100 at 14 days after application, read-out: Pre-emerge Herbicidal Activity AMARE): 100%
pest or weed control at 250 g/ha ([1]; Amaranthus retroflexus, pre-emergence, 336 h, rate 250 g ai/ha, phytotoxicity rating 0-100 at 14 days after application, read-out: Pre-emerge Herbicidal Activity AMARE): 100%
pest or weed control at 63 g/ha ([2]; Senna obtusifolia, pre-emergence, 336 h, rate 63 g ai/ha, phytotoxicity rating 0-100 at 14 days after application, read-out: Pre-emerge Herbicidal Activity CASOB): 30%
pest or weed control at 250 g/ha ([2]; Senna obtusifolia, pre-emergence, 336 h, rate 250 g ai/ha, phytotoxicity rating 0-100 at 14 days after application, read-out: Pre-emerge Herbicidal Activity CASOB): 30%
pest or weed control at 63 g/ha [3, 13]: 30%
pest or weed control at 250 g/ha [3, 13]: 90%
pest or weed control at 63 g/ha [4, 13]: 20%
pest or weed control at 250 g/ha [4, 13]: 50%
pest or weed control at 63 g/ha [5, 13]: 80%
pest or weed control at 250 g/ha [5, 13]: 100%
pest or weed control at 63 g/ha [6, 13]: 20%
pest or weed control at 250 g/ha [6, 13]: 40%
pest or weed control at 63 g/ha [11, 13]: 95%
pest or weed control at 250 g/ha [11, 13]: 100%
pest or weed control at 63 g/ha [7, 13]: 20%
pest or weed control at 250 g/ha [7, 13]: 70%
pest or weed control at 63 g/ha [8, 13]: 100%
pest or weed control at 250 g/ha [8, 13]: 100%
pest or weed control at 63 g/ha [10, 13]: 100%
pest or weed control at 250 g/ha [10, 13]: 100%

COc1c(Cl)cc(F)c(-n2c(=O)cc(C(F)(F)F)n(C)c2=O)c1N [Compound 1-4, 3-(2-amino-4-chloro-6-fluoro-3-methoxyphenyl)-1-methyl-6-trifluoromethyl-2,4(1H, 3H)-pyrimidinedione]
Pre-emerge Herbicidal Activity AMARE (phytotoxicity rating, scale 0-100) ([1]; 63 g ai/ha): 100
Pre-emerge Herbicidal Activity AMARE (phytotoxicity rating, scale 0-100) ([1]; 250 g ai/ha): 100
phytotoxicity rating AMARE ([1]; 3.9 g ai/ha): 30
phytotoxicity rating AMARE ([1]; 7.8 g ai/ha): 100
phytotoxicity rating AMARE ([1]; 15.6 g ai/ha): 90
phytotoxicity rating AMARE ([1]; 31.3 g ai/ha): 100
phytotoxicity rating AMARE ([1]; 62.5 g ai/ha): 100
phytotoxicity rating AMARE ([1]; 125 g ai/ha): 100
phytotoxicity rating AMARE ([1]; 250 g ai/ha): 100
Pre-emerge Herbicidal Activity CASOB (phytotoxicity rating, scale 0-100) ([2]; 63 g ai/ha): 90
Pre-emerge Herbicidal Activity CASOB (phytotoxicity rating, scale 0-100) ([2]; 250 g ai/ha): 100
phytotoxicity rating CASOB ([2]; 3.9 g ai/ha): 0
phytotoxicity rating CASOB ([2]; 7.8 g ai/ha): 30
phytotoxicity rating CASOB ([2]; 15.6 g ai/ha): 100
phytotoxicity rating CASOB ([2]; 31.3 g ai/ha): 0
phytotoxicity rating CASOB ([2]; 62.5 g ai/ha): 80
phytotoxicity rating CASOB ([2]; 125 g ai/ha): 95
phytotoxicity rating CASOB ([2]; 250 g ai/ha): 100
pest or weed control at 63 g/ha [3, 12]: 0%
pest or weed control at 250 g/ha [3, 12]: 40%
pest or weed control at 63 g/ha [5, 12]: 100%
pest or weed control at 250 g/ha [5, 12]: 100%
pest or weed control at 63 g/ha [6, 12]: 0%
pest or weed control at 250 g/ha [6, 12]: 70%
pest or weed control at 63 g/ha [11, 12]: 60%
pest or weed control at 250 g/ha [11, 12]: 95%
pest or weed control at 63 g/ha [7, 12]: 0%
pest or weed control at 250 g/ha [7, 12]: 50%
pest or weed control at 63 g/ha [8, 12]: 30%
pest or weed control at 250 g/ha [8, 12]: 95%
pest or weed control at 63 g/ha [9]: 60%
pest or weed control at 250 g/ha [9]: 100%
pest or weed control at 63 g/ha [10, 12]: 100%
pest or weed control at 250 g/ha [10, 12]: 100%

Source: US6355799B1, “Substituted benzene compounds, process for their preparation, and herbicidal and defoliant compositions containing them” (ISK Americas Incorporated, priority 1997, dated 2002)
